# Assay results published in PubChem BioAssay (NCI).
#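 Protocol summary: plate cells (96-well), add compound at 5 concentrations, incubate 48 h, interpolate endpoints linearly. At the GI50, growth is halved. TGI: total growth inhibition.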
# What was measured:
# Assay in all cases: DTP human tumour cell line panel, 48 h
# [1] = system: HCC-2998 colon
# [2] = system: SF-539 CNS
# [3] = system: LOX IMVI melanoma
# [4] = system: IGROV1 ovarian
# [5] = system: SW-620 colon
# [6] = system: EKVX NSCLC
# [7] = system: ACHN renal
# [8] = system: OVCAR-5 ovarian
# [9] = system: A498 renal
# [10] = system: HS 578T breast
Structure (SMILES),TGI [1],TGI [2],TGI [3],TGI [4],TGI [5],TGI [6],TGI [7],TGI [8],TGI [9],GI50 [1],GI50 [2],GI50 [3],GI50 [4],GI50 [10],TGI [10],GI50 [5],GI50 [6],GI50 [7],GI50 [8],GI50 [9]
N#Cc1ccccc1NC(=O)/C(=N\N)C(C(=O)c1ccncc1)C1OC(=O)c2ccccc21 (centres undefined),> 100 µM,> 100 µM,> 100 µM,> 100 µM,> 100 µM,> 100 µM,> 100 µM,> 100 µM,,,,,,,,,,,,
O=C(O)C/C(=C\c1ccco1)C(=O)O,,> 100 µM,> 100 µM,> 100 µM,> 100 µM,> 100 µM,> 100 µM,> 100 µM,> 100 µM,,,,,,,,,,,
COc1ccc(OC)c(/C=N/NC(=O)Cc2csc3nc(-c4ccc(Br)cc4)cn23)c1,34.9 µM,24.4 µM,47.4 µM,26.7 µM,49.1 µM,57.6 µM,34.5 µM,> 100 µM,,10 µM,11.2 µM,12.6 µM,4.02 µM,11.6 µM,45.4 µM,6.44 µM,17.1 µM,16.9 µM,50.2 µM,
Cc1ccc(S(=O)(=O)c2c(N)c3nc4ccccc4n3c3nc4ccccc4nc23)cc1,> 100 µM,> 100 µM,> 100 µM,> 100 µM,> 100 µM,> 100 µM,> 100 µM,> 100 µM,,,,,,,,,,,,
N=C(N)c1ccc(OCc2cccc(COc3ccc(C(=N)N)cc3)c2)cc1,33.2 µM,5.1 µM,,> 100 µM,21.3 µM,8.25 µM,49.3 µM,> 100 µM,,11.4 µM,1.92 µM,,22.2 µM,4 µM,12.5 µM,5.64 µM,2.85 µM,17.8 µM,29.1 µM,
Nc1c(C(=O)c2cccc(CCCN3CCOCC3)c2)cnn1-c1ccc(F)cc1,> 25 µM,> 25 µM,> 25 µM,> 25 µM,> 25 µM,,> 25 µM,> 25 µM,> 25 µM,> 25 µM,> 25 µM,> 25 µM,> 25 µM,> 25 µM,> 25 µM,> 25 µM,,> 25 µM,> 25 µM,> 17.6 µM
O=C1[C@@H]2C(c3ccccc3Br)=NO[C@@H]2C(=O)N1c1ccc(Cc2ccc(N3C(=O)[C@H]4C(c5ccccc5Br)=NO[C@H]4C3=O)cc2)cc1,> 100 µM,> 100 µM,> 100 µM,> 100 µM,> 100 µM,> 100 µM,> 100 µM,> 100 µM,> 100 µM,,,,,,,,,,,
CCNC(=O)[C@@H]1CCCN2C(=O)CC[C@H](NC(=O)[C@H](Cc3ccc(OP(=O)(O)O)cc3)NC(C)=O)C(=O)N12,> 25 µM,> 25 µM,> 25 µM,> 25 µM,> 25 µM,,> 25 µM,> 25 µM,> 25 µM,> 25 µM,> 25 µM,> 25 µM,> 25 µM,> 25 µM,> 25 µM,> 25 µM,,> 25 µM,> 25 µM,> 25 µM
C[N+](C)(C)CC1CCCC/C1=N\OC(=O)c1ccccc1 (centres undefined),> 100 µM,> 100 µM,> 100 µM,> 100 µM,> 100 µM,> 100 µM,> 100 µM,> 100 µM,,,,,,,,,,,,
CC(NS(=O)(=O)c1ccc([N+](=O)[O-])cc1)C(=O)O (centres undefined),> 100 µM,> 100 µM,> 100 µM,> 100 µM,> 100 µM,> 100 µM,> 100 µM,> 100 µM,> 100 µM,,,,,,,,,,,
COc1cccc(C2c3cc4c(cc3OC(C)(N3CCCC3)C2C)OCO4)c1OC (centres undefined),53.2 µM,,27 µM,> 100 µM,> 100 µM,78.2 µM,31.6 µM,43 µM,,,,,,,52.5 µM,,,,,
Nc1ccc2c(c1)C(=O)C(=O)c1c-2nc2ccccn12,4.09 µM,3.03 µM,1.33 µM,3.55 µM,3.83 µM,4.52 µM,2.46 µM,3.57 µM,3.37 µM,2.22 µM,1.66 µM,0.327 µM,1.52 µM,,,1.8 µM,2.04 µM,1.22 µM,1.92 µM,1.57 µM
COc1ccccc1NC(=O)c1sc2nc3c(cc2c1N)C(=O)CCC3,> 100 µM,> 100 µM,> 100 µM,> 100 µM,,,> 100 µM,,> 100 µM,> 100 µM,3.97 µM,> 100 µM,8.15 µM,6.77 µM,> 100 µM,,,6.2 µM,,1.84 µM
C/C(CN1C(=O)c2ccccc2C1=O)=N\NS(=O)(=O)c1ccc(C)cc1,> 100 µM,> 100 µM,,> 100 µM,> 100 µM,> 100 µM,> 100 µM,> 100 µM,> 100 µM,,,,,,,,,,,
CN1N=CSC12C(=O)N(c1ccc(Cl)cc1)C(=O)N2c1ccc(Cl)cc1 (centres undefined),37.7 µM,> 100 µM,8.91 µM,> 100 µM,> 100 µM,> 100 µM,,,9.67 µM,,,,,,,,,,,
OC(c1cccc(-n2ccc(C(F)(F)F)n2)c1)c1cnccc1NC1CCCCCC1 (centres undefined),3.03 µM,3.1 µM,3.12 µM,2.92 µM,3.31 µM,3.16 µM,3.02 µM,3.01 µM,,1.61 µM,1.69 µM,1.69 µM,1.53 µM,1.64 µM,3.69 µM,1.67 µM,1.66 µM,1.65 µM,1.64 µM,
CCOC(=O)Nc1cc2nnc(-c3ccccc3)nc2c(N)n1,> 100 µM,61.9 µM,30.8 µM,> 100 µM,42.2 µM,> 100 µM,> 100 µM,48.5 µM,,,,,,,,,,,,
COc1cc(/C=C/c2ccncc2)cc(OC)c1OC,,> 100 µM,> 100 µM,> 100 µM,> 100 µM,> 100 µM,> 100 µM,97.9 µM,> 100 µM,,,,,,,,,,,
